Data reported in PubChem BioAssay AID248 (DTP/NCI, 2004).
Values joined by “and” are separate entries in the source; they are usually repeats but may differ in a detail not shown here. Identical values can stand only once. Inconclusive results and toxic doses are left out. No stated cut-off is given here; in the data, active means T/C of 150% or more; inactive means T/C below 125%.

Test system: L1210 leukemia ip in BDF1 mice, survival T/C
Test: NCI In Vivo Anticancer Drug Screen. Data for tumor model L1210 Leukemia (intraperitoneal) in B6D2F1 (BDF1) mice
Conditions: endpoint: mean survival time, higher = longer survival
Method in brief: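 Each compound was tested against a transplantable tumor grown in mice. The endpoint was survival, with treated animals benchmarked against vehicle controls as a simple ratio.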

[1] = dose: 100.0 mg/kg/injection, schedule: Q04DX003 (ip), vehicle: saline
[2] = dose: 25.0 mg/kg/injection, schedule: Q01DX009 (ip), vehicle: Klucel (hydroxypropylcellulose) (HPC)
[3] = dose: 50.0 mg/kg/injection, schedule: Q01DX009 (ip), vehicle: Klucel (hydroxypropylcellulose) (HPC)
[4] = dose: 100.0 mg/kg/injection, schedule: Q01DX009 (ip), vehicle: Klucel (hydroxypropylcellulose) (HPC)
[5] = dose: 200.0 mg/kg/injection, schedule: Q01DX009 (ip), vehicle: Klucel (hydroxypropylcellulose) (HPC)
[6] = dose: 100.0 mg/kg/injection, schedule: Q01DX001 (ip), vehicle: saline
[7] = dose: 200.0 mg/kg/injection, schedule: Q01DX001 (ip), vehicle: saline
[8] = dose: 400.0 mg/kg/injection, schedule: Q01DX001 (ip), vehicle: saline
[9] = dose: 100.0 mg/kg/injection, schedule: Q04DX003 (ip), vehicle: Klucel (hydroxypropylcellulose) (HPC)
[10] = dose: 200.0 mg/kg/injection, schedule: Q04DX003 (ip), vehicle: Klucel (hydroxypropylcellulose) (HPC)
[11] = dose: 25.0 mg/kg/injection, schedule: Q04DX003 (ip), vehicle: saline
[12] = dose: 5.0 mg/kg/injection, schedule: Q01DX001 (ip), vehicle: saline
[13] = dose: 100.0 mg/kg/injection, schedule: Q04DX003 (ip), vehicle: saline with Tween-80
[14] = dose: 200.0 mg/kg/injection, schedule: Q04DX003 (ip), vehicle: saline with Tween-80
[15] = dose: 100.0 mg/kg/injection, schedule: Q01DX009 (ip), vehicle: saline with Tween-80
[16] = dose: 200.0 mg/kg/injection, schedule: Q01DX009 (ip), vehicle: saline with Tween-80
[17] = dose: 100.0 mg/kg/injection, schedule: Q01DX001 (ip), vehicle: carboxymethylcellulose (CMC)
[18] = dose: 200.0 mg/kg/injection, schedule: Q01DX001 (ip), vehicle: carboxymethylcellulose (CMC)
[19] = dose: 400.0 mg/kg/injection, schedule: Q01DX001 (ip), vehicle: carboxymethylcellulose (CMC)
[20] = dose: 100.0 mg/kg/injection, schedule: Q01DX001 (ip), vehicle: saline with Tween-80
[21] = dose: 200.0 mg/kg/injection, schedule: Q01DX001 (ip), vehicle: saline with Tween-80
[22] = dose: 400.0 mg/kg/injection, schedule: Q01DX001 (ip), vehicle: saline with Tween-80
[23] = dose: 100.0 mg/kg/injection, schedule: Q04DX002 (ip), vehicle: Klucel (hydroxypropylcellulose) (HPC)
[24] = dose: 200.0 mg/kg/injection, schedule: Q04DX002 (ip), vehicle: Klucel (hydroxypropylcellulose) (HPC)
[25] = dose: 400.0 mg/kg/injection, schedule: Q01DX009 (ip), vehicle: saline with Tween-80
[26] = dose: 400.0 mg/kg/injection, schedule: Q04DX003 (ip), vehicle: saline with Tween-80
[27] = dose: 25.0 mg/kg/injection, schedule: Q04DX002 (ip), vehicle: Klucel (hydroxypropylcellulose) (HPC)
[28] = dose: 50.0 mg/kg/injection, schedule: Q04DX002 (ip), vehicle: Klucel (hydroxypropylcellulose) (HPC)
[29] = dose: 50.0 mg/kg/injection, schedule: Q01DX001 (ip), vehicle: saline

Measured: T/C

CCOC1=CC(=O)CCC1
inactive: dose: 50.0 mg/kg/injection, schedule: Q01DX009 (ip), vehicle: saline 98 % of control | dose: 100.0 mg/kg/injection, schedule: Q01DX009 (ip), vehicle: saline 94 % of control | [1] 98 % of control | dose: 200.0 mg/kg/injection, schedule: Q01DX009 (ip), vehicle: saline 100 % of control | dose: 200.0 mg/kg/injection, schedule: Q04DX003 (ip), vehicle: saline 110 % of control | dose: 400.0 mg/kg/injection, schedule: Q04DX003 (ip), vehicle: saline 101 % of control

CCCCCCCCCCC(O)CN1CCN(c2ccc(C)cc2)CC1 (configuration not stated)
inactive: dose: 12.5 mg/kg/injection, schedule: Q01DX009 (ip), vehicle: Klucel (hydroxypropylcellulose) (HPC) 90 % of control | [2] 90 % of control | [3] 89 % of control | [4] 94 % of control | [5] 101 % of control

O=C1OC2CCCCC1CC2 (configuration not stated)
inactive: [6] 108 % of control | [7] 110 % of control | [8] 87 % of control

O=C(Nc1cc([N+](=O)[O-])ccc1F)Oc1cccc(C(F)(F)F)c1
inactive: [9] 89 % of control | [10] 97 % of control | dose: 400.0 mg/kg/injection, schedule: Q04DX003 (ip), vehicle: Klucel (hydroxypropylcellulose) (HPC) 95 % of control

CS(C)(=O)=C/C(=C\C(=O)c1ccccc1)c1ccccc1
inactive: [11] 100 % of control | dose: 50.0 mg/kg/injection, schedule: Q04DX003 (ip), vehicle: saline 103 % of control | [1] 97 % of control

CSC(c1ccccc1F)=[N+]1CCCCC1
inactive: [12] 100 % of control | dose: 10.0 mg/kg/injection, schedule: Q01DX001 (ip), vehicle: saline 96 % of control | dose: 20.0 mg/kg/injection, schedule: Q01DX001 (ip), vehicle: saline 95 % of control

CCCCOP(=O)(Cc1cc(C)cc(C)c1)OCCCC
inactive: [13] 87 % of control | [14] 101 % of control

CC(Cl)(Cl)[N+](=O)[O-]
inactive: [15] 104 % of control | [16] 104 % of control

CCOC(CNC(=O)c1cccc([N+](=O)[O-])c1)OCC
inactive: [3] 87 % of control | [4] 98 % of control | [5] 102 % of control

O=CO.[Cd]
inactive: [12] 104 % of control

Cc1cc(=S)n(C)c2ccccc12
inactive: [17] 89 % of control | [18] 89 % of control | [19] 96 % of control

CCCCCCCCCCCCCCCCC1CCCC2(CCCC2)C1 (configuration not stated)
inactive: [20] 103 % of control | [21] 92 % of control | [22] 101 % of control

O=C(COc1ccccc1)NCCNC(=S)Nc1ccccc1
inactive: [20] 102 % of control | [21] 94 % of control | [22] 112 % of control

CN(C)C(=S)NN
inactive: dose: 1.56 mg/kg/injection, schedule: Q01DX009 (ip), vehicle: saline with Tween-80 111 % of control | dose: 3.12 mg/kg/injection, schedule: Q01DX009 (ip), vehicle: saline with Tween-80 117 % of control

O=C1OC(/C=C\c2ccccc2)=NC/1=C\c1cc(Cl)cc(Cl)c1O
inactive: [23] 108 % of control | [24] 112 % of control | dose: 400.0 mg/kg/injection, schedule: Q04DX002 (ip), vehicle: Klucel (hydroxypropylcellulose) (HPC) 108 % of control

C=CC1CC1(C(=O)O)C(=O)O (configuration not stated)
inactive: [15] 93 % of control | [13] 98 % of control | [16] 96 % of control | [14] 98 % of control | [25] 90 % of control | [26] 93 % of control

CC(O)C[P+](c1ccccc1)(c1ccccc1)c1ccccc1 (configuration not stated)
inactive: [6] 110 % of control | [7] 96 % of control

COc1ccc(C(C#N)N2CCCC2)cc1 (configuration not stated)
inactive: dose: 6.25 mg/kg/injection, schedule: Q01DX009 (ip), vehicle: other 95 % of control | dose: 6.25 mg/kg/injection, schedule: Q04DX003 (ip), vehicle: other 98 % of control | dose: 12.5 mg/kg/injection, schedule: Q01DX009 (ip), vehicle: other 95 % of control | dose: 12.5 mg/kg/injection, schedule: Q04DX003 (ip), vehicle: other 104 % of control | dose: 25.0 mg/kg/injection, schedule: Q04DX003 (ip), vehicle: other 96 % of control

Cc1ccc(N2CCN(CCCN3CCN(c4ccccc4Cl)CC3)CC2)cc1
inactive: dose: 6.25 mg/kg/injection, schedule: Q01DX009 (ip), vehicle: saline with Tween-80 99 % of control | dose: 12.5 mg/kg/injection, schedule: Q01DX009 (ip), vehicle: saline with Tween-80 89 % of control | dose: 12.5 mg/kg/injection, schedule: Q04DX003 (ip), vehicle: saline 92 % of control | dose: 25.0 mg/kg/injection, schedule: Q01DX009 (ip), vehicle: saline with Tween-80 94 % of control | [11] 90 % of control

Nc1cc(S(=O)(=O)c2ccc(O)c(N)c2)ccc1O
inactive: [15] 105 % of control | [13] 103 % of control | [16] 107 % of control | [14] 104 % of control | [25] 109 % of control | [26] 97 % of control

c1ccc(-c2c(-c3ccc4c(c3)OCO4)c(-c3ccc4c(c3)OCO4)c(-c3ccccc3)c3ccccc23)cc1
inactive: [20] 92 % of control | [21] 100 % of control

O=Nc1ccc(O)cc1
inactive: [2] 96 % of control | [27] 104 % of control | dose: 25.0 mg/kg/injection, schedule: Q04DX003 (ip), vehicle: Klucel (hydroxypropylcellulose) (HPC) 102 % of control | [3] 102 % of control and 103 % of control | [28] 100 % of control | dose: 50.0 mg/kg/injection, schedule: Q04DX003 (ip), vehicle: Klucel (hydroxypropylcellulose) (HPC) 98 % of control | [4] 112 % of control and 123 % of control | [23] 104 % of control | [9] 100 % of control | [5] 100 % of control and 110 % of control | [24] 103 % of control | [10] 104 % of control

COc1cc(/C=N\N=C(/C)c2ccc(C)cc2C)cc(OC)c1OC
inactive: dose: 100.0 mg/kg/injection, schedule: Q04DX002 (ip), vehicle: saline with Tween-80 88 % of control | dose: 200.0 mg/kg/injection, schedule: Q04DX002 (ip), vehicle: saline with Tween-80 92 % of control

CN(C)NCCOC(c1ccccc1)c1ccccc1
inactive: [27] 102 % of control | [28] 106 % of control | [23] 95 % of control and 108 % of control

O=c1[nH]cnc2c1ncn2C1OCC(O)C(O)C1O (configuration not stated)
inactive: [29] 105 % of control | [6] 101 % of control and 105 % of control | [7] 119 % of control and 109 % of control | [8] 103 % of control

COc1ccc(OC(C)=O)c2c1C(=O)OC(C)C2NC(=O)C(C)NC(C)=O (configuration not stated)
inactive: dose: 12.5 mg/kg/injection, schedule: Q04DX002 (ip), vehicle: saline with Tween-80 103 % of control | dose: 25.0 mg/kg/injection, schedule: Q04DX002 (ip), vehicle: saline with Tween-80 107 % of control | dose: 50.0 mg/kg/injection, schedule: Q04DX002 (ip), vehicle: saline with Tween-80 100 % of control

CCCCCCCCCCC1Cc2ccccc2C1
inactive: [29] 95 % of control | [6] 98 % of control | [7] 104 % of control | [8] 93 % of control

O=C(O)c1ccc(C(Cl)C(Cl)(Cl)Cl)cc1O (configuration not stated)
inactive: [17] 92 % of control | [18] 94 % of control | [19] 96 % of control
